The values that follow are results of earlier work, collected in patent US11413271B2, “Oral eliglustat transmucosal delivery system” (ABON PHARMACEUTICALS LLC., priority 2018, dated 2022).

Each structure is given as a SMILES string.

As to `CCCCCCCC(=O)N[C@H](CN1CCCC1)[C@H](O)c1ccc2c(c1)OCCO2` [eliglustat], the “Bioavailability in EMs (estimated)” value (CYP2D6 extensive metabolizers) is reported as “about 4.17%”. Also, under “multiple oral doses of 84 mg twice daily in EMs”, the “Increase of systemic exposure (AUC0-12) at steady state compared to after the first dose (AUC0-∞)” value is “up to 2 fold”.
